Structures can show the parent of a compound that is named as a salt. Where two headings read alike, the source gives them in different places.
Assays:
NMDA receptor [1] = biological target: T1, NMDA receptor (Mus musculus, UniProt P35438); test: Maximal electroshock (MES)-induced tonic convulsions; assay type: in vivo; settings: for MES ID50 / ED50: i.p., 15 min before induction; for ED50: mouse, ip, 0.25 h, read-out: MES ID50
T1 construct: from tissue; host or cells: living mice (albino Swiss males for NMDA and PTZ tests, NMR females for MES)
Experimental: To assess NMDA receptor antagonistic properties of the tested agents by assessing anticonvulsive effects. Additionally the role of organic acid transporters in the elimination from the brain of tested agents was assessed by using an inhibitor, Probenicid, on the duration of anticonvulsive activity.
Male albino Swiss mice (19-21 g) housed 10-15 per cage were used for the NMDA lethality test (Leander et al., 1988). For pentylenetetrazol (PTZ)-induced convulsions male albino Swiss mice (25-34 g.) housed 40 per cage (58×38×20 cm) were used while in the maximal electroshock (MES) and motor impairment tests NMR female mice (18-28 g) housed 5 per cage were employed. All animals were kept with water and food ad libittum under a 12-h light-dark cycle (light on at 6 a.m.), and at a controlled temperature (20°±0.5° C.). All experiments were performed between 10 a.m. and 5 p.m. Tested agents were injected 15 min. i.p before the induction of convulsions if not stated otherwise (see below). Mrz 2/502 was dissolved in saline added with NaOH. Most other agents were dissolved in the following solution: 0.606 g Tris; 5.0 g. glucose; 0.5 g. Tween 80; and 95 ml water. The choline and tetramethylammonium salts were dissolved in distilled water.
MES (100 Hz, 0.5 sec shock duration, 50 mA shock intensity, 0.9 ms impulse duration, Ugo Basile) was applied through corneal electrodes. The presence of tonic convulsions was scored (tonic extension of hind paws with minimum angle to the body of 90°). In an additional experiment mice were injected with Probenicid (200 mg/kg) 30 min before administration of the tested agents to assess the role of organic acid transport in elimination (duration of action). The aim was to obtain ED50 s for all parameters scored using the Litchfield Wilcoxon (1949) test for quantal dose responses.

NMDA receptor [2] = biological target: T2, NMDA receptor (Rattus norvegicus, UniProt P35439); test: Patch clamp, inward currents to NMDA in cultured superior colliculus neurones; assay type: cell-based; settings: NMDA 200 μM, glycine 1 μM
T2 construct: endogenous in cells
Experimental: Cells were mechanically dissociated in 0.05% DNAase / 0.3% ovomucoid (Sigma) following a 15 minute pre-incubation with 0.66% trypsin / 0.1% DNAase (Sigma). The dissociated cells were then centrifuged at 18G for 10 minutes, resuspended in minimum essential medium (Gibco) and plated at a density of 200,000 cells cm onto poly-L-lysine (Sigma)-precoated plastic petri dishes (Falcon). The cells were nourished with NaHCO3 /HEPES-buffered minimum essential medium supplemented with 5% foetal calf serum and 5% horse serum (Gibco) and incubated at 37° C. with 5%CO2 at 95% humidity. The medium was exchanged completely following inhibition of further glial mitosis with cytosine-β-D-arabinofuranoside (20 μM Sigma) after about 7 days in vitro. Thereafter the medium was exchanged partially twice weekly. […] Moreover, the relatively small neurones (soma 15-20 μm .phi.) are ideally suited to minimise problems of buffered diffusion for concentration clamp experiments.
Patch clamp recordings were made from these neurones with polished glass electrodes (4-6 m.OMEGA.) in the whole cell mode at room temperature (20°-22° C.) with the aid of an EPC-7 amplifier (List). Test substances were applied by switching channels of a custom made fast superfusion system with a common outflow (10-20 ms exchange times). The contents of the intracellular solution were as follows (mM): CsCl (120), TEACl (20), EGTA (10), MgCl2 (1), CaCl2 (0.2), glucose (10), ATP (2), cAMP (0.25); pH was adjusted to 7.3 with CsOH or HCl. The extracellular solutions had the following basic composition (mM): NaCl (140), KCl (3), CaCl2 (0.2), glucose (10), HEPES (10), sucrose (4.5), tetrodotoxin (TTX 3*10-4). For most experiments glycine (1 μM) was present in all solutions. Experiments to test the glycine-dependence of the tricyclic "pyrido-phtalazin diones" were performed in the continuous presence of increasing concentrations of glycine (1-10 μM).
This effect was mediated at the glycineB site as evidenced by the parallel shift in the concentration-response curves in the presence of increasing glycine concentrations. Thus the Kbs of Mrz 2/502 as assessed according to the Cheng-Prusoff relationship were similar in glycine 1, 3 and 10 μM (80, 124 and 118 nM respectively). […] Choline derivatives had similar potencies to the free acids in vitro (Table14b).

[3] = biological target: T3, glycineB site of the NMDA receptor (rat cortical membranes) (Rattus norvegicus, UniProt P35439); test: [3H]5,7-DCKA binding assay; settings: 10 nM [3H]5,7-DCKA
T3 construct: The cortex was dissected and homogenised in 20 volumes of ice-cold 0.32M sucrose; from tissue; host or cells: brain cortex membranes of male Sprague-Dawley rats
Experimental: Tissue preparation was performed according to Foster and Wong (1987). Male Sprague-Dawley rats (200-250g) were decapitated and their brains were removed rapidly. The cortex was dissected and homogenised in 20 volumes of ice-cold 0.32M sucrose using a glass-Teflon homogenizer. The homogenate was centrifuged at 1000×g for 10 min. The pellet was discarded and the supernatant centrifuged at 20,000×g for 20 min. The resulting pellet was resuspended in 20 volumes of distilled water and centrifuged for 20 min at 8000×g. Then the supernatant and the buffy coat were centrifuged three times (48,000× g for 20 min) in the presence of 5 mM Tris-HCl, pH 7.4. All centrifugation steps were carried out at 4° C. After resuspension in 5 volumes of 5 mM Tris-HCl, pH 7.4 the membrane suspension was frozen rapidly at -80° C. until the day of assay. On the day of assay the membranes were thawed and washed four times by resuspension in 5 mM Tris-HCl, pH 7.4 and centrifugation at 48,000× g for 20 min. The final pellet was suspended in assay buffer.
The amount of protein in the final membrane preparation was determined according to the method of Lowry (1951) with some modifications (Hartfree, 1972). 50 μl of Protein samples (in triplicates) were diluted to 1 ml with distilled water and treated with 0.9 ml of a solution containing 2 g potassium sodium tartrate and 10 g Na2 CO3 in 500 ml 1N NaOH and 500ml water. Blank and standard (with bovine serum albumin) were set up in the same way. The tubes were placed in a water bath at 50° C. for 10 min. and cooled at room temperature. 100 μl of a solution containing 2 g potassium sodium tartrate and 1 g CuSO4 x 5 H2 O in 90 ml water and 10 ml 1N NaOH were added. The samples were left at room temperature for at least 10 min., then 3 ml of Folin-Ciocalteu reagent (1 ml of reagent diluted with 15 ml water) was added rapidly during mixing. The tubes were again heated at 50° C. for 10 min. and cooled to room temperature. Absorbencies were then read in 1 cm cuvets at 650 nm. The final protein concentration used for our studies was between 100 and 250 μg/ml.
Incubation in both binding assays was terminated using a Millipore filter system. The samples, all in triplicate, were rinsed three times with 2.5 ml ice cold assay buffer over glass fibre filters obtained from Schleicher & Schuell under a constant vacuum. Following separation and rinse the filters were placed into scintillation liquid (5 ml; Ultima Gold) and radioactivity retained on the filters was determined by using conventional liquid scintillation counter (Hewlett Packard, Liquid Scintillation Analyser). `Total binding` was the absolute amount of radioligand bound in the absence of any additives whereas `non-specific` binding was determined in the presence of a high concentration of competitor.
[^3 H]5,7-DCKA binding assay
Experiments were performed according to the methods modified from previous groups (Canton et al., 1991; Yoneda et al., 1993). Membranes were suspended and incubated in 10 mM Tris-HCl, pH 7.4. Incubation time was 45 min at 4° C. Non-specific binding of [^3 H]5,7-DCKA was defined by the addition of unlabeled glycine at 0.1 mM. The stop-solution contained 10 mM Tris-HCl and 10 mM magnesium sulphate, pH 7.4. Filtration was performed as rapidly as possible. Displacement experiments were performed with a fixed [^3 H]5,7-DCKA concentration of 10 nM. Test compounds were diluted in water or DMSO and added in at least 5 different concentrations.

NMDA receptor [4] = biological target: T2, NMDA receptor; test: Microelectrophoretic application of NMDA to spinal neurones in vivo; settings: responses of single rat spinal neurones; for ED50: rat, iv, read-out: Microelectrophoretic NMDA ID50; for Microelectrophoretic NMDA ID50: i.v.
Experimental: (§1) The ability of these glycineB antagonists to act as NMDA receptor antagonists in vivo was assessed using i.v. administration against responses of single neurones in the rat spinal cord to microelectrophoretic application of AMPA and NMDA.

AMPA = test: Microelectrophoretic application of AMPA to spinal neurones in vivo; settings: i.v., responses of single rat spinal neurones
Experimental: as §1

[5] = peak currents, read-out: Peak NMDA IC50
[6] = plateau (steady-state) currents, read-out: Plateau NMDA IC50

| Compound | IC50 (NMDA receptor [2]; [5]) [nM] | IC50 (NMDA receptor [2]; [6]) [nM] | IC50 [3] [nM] | ED50 (NMDA receptor [4]) [mg/kg] | Microelectrophoretic AMPA ID50 (AMPA) [mg/kg] | further results |
| --- | --- | --- | --- | --- | --- | --- |
| O=c1[nH][nH]c(=O)c2nc3cc(Cl)c(Cl)cc3cc12 [Mrz 2/574] |  |  |  |  |  | MES ID50 (NMDA receptor [1]; listed as 574, 15 min): > 100 mg/kg |
| O=c1[nH]nc(O)c2c1cc1cc(Cl)c(Br)cc1[n+]2[O-] [Mrz 2/568, 7-bromo-8-chloro-4-hydroxy-1-oxo-1,2-dihydropyridazino-[4,5-b]-quinoline 5-oxide] | 10000 | 1500 |  |  |  |  |
| COc1ccc2nc3c(=O)[nH][nH]c(=O)c3cc2c1 [Mrz 2/554] | 170000 | 36200 |  |  |  | ED50 (NMDA receptor [1]): > 100 mg/kg |
| O=c1[nH][nH]c(=O)c2nc3ccc(F)cc3cc12 [Mrz 2/572] | 12400 | 3500 | 1140 | > 16 | > 16.0 | MES ID50 (NMDA receptor [1]; listed as 572, 15 min): > 100 mg/kg |
| O=c1[nH][nH]c(=O)c2nc3ccc(Cl)cc3cc12 [Mrz 2/569] | 2000 | 500 | 970 | > 16 | > 16.0 | MES ID50 (NMDA receptor [1]; listed as 569, 15 min): > 50 mg/kg |
| O=c1[nH]nc(O)c2c1cc1cc(F)ccc1[n+]2[O-] [Mrz 2/571, 8-fluoro-4-hydroxy-1-oxo-1,2-dihydropyridazino[4,5-b]-quinoline 5-oxide choline salt] | 4900 | 1000 | 320 |  |  | MES ID50 (NMDA receptor [1]; listed as 571, 15 min): 15.5 mg/kg; Microelectrophoretic NMDA ID50 (NMDA receptor [4]; listed as 571): 4.7 mg/kg; Microelectrophoretic AMPA ID50 (AMPA; listed as 571): 9.2 mg/kg |
| COc1ccc2cc3c(=O)[nH][nH]c(=O)c3nc2c1 [Mrz 2/575] | 94000 | 14500 |  |  |  | ED50 (NMDA receptor [1]): > 100 mg/kg |
| O=c1[nH][nH]c(=O)c2nc3ccc(Br)cc3cc12 [Mrz 2/586] | 2200 |  |  | > 16 | > 16.0 | MES ID50 (NMDA receptor [1]; listed as 586, 15 min): > 50 mg/kg |
| COc1ccc2c(c1)cc1c(=O)[nH]nc(O)c1[n+]2[O-] [Mrz 2/578] | 101000 | 7700 |  |  |  | ED50 (NMDA receptor [1]): > 100 mg/kg |
| O=c1[nH]nc(O)c2c1cc1ccccc1[n+]2[O-] [Mrz 2/577, 4-hydroxy-1-oxo-1,2-dihydro-pyridazino[4,5-b]-quinoline 5-oxide choline salt] |  |  |  | 34 | > 32.0 | MES ID50 (NMDA receptor [1]; listed as 577, 15 min): 23.7 mg/kg |
| O=c1[nH]nc(O)c2c1cc1cc(Br)c(Cl)cc1[n+]2[O-] [Mrz 2/551, 7-chloro-8-bromo-4-hydroxy-1-oxo-1,2-dihydropyridazino-[4,5-b]-quinoline 5-oxide] | 2400 | 600 |  |  |  |  |
| O=c1[nH]nc(O)c2c1cc1cc(Cl)ccc1[n+]2[O-] [Mrz 2/576, 8-chloro-4-hydroxy-1-oxo-1,2-dihydropyridazino[4,5-b]-quinoline 5-oxide choline salt] | 1100 | 500 | 450 |  |  | MES ID50 (NMDA receptor [1]; listed as 576, 15 min): 7.7 mg/kg; Microelectrophoretic NMDA ID50 (NMDA receptor [4]; listed as 576): 2.8 mg/kg; Microelectrophoretic AMPA ID50 (AMPA; listed as 576): > 16.0 mg/kg |
| CCCN(CCC)S(=O)(=O)c1ccc(C(=O)O)cc1 [Probenecid, reference compound] |  |  |  |  |  | independent effect on MES-induced convulsions (NMDA receptor [1]; 200 mg/kg): no independent effect |

— patent publication US5776935A, “Pyrido-phtalazin diones and their use against neurological disorders associated with excitotoxicity and malfunctioning of glutamatergic neurotransmission” (Merz & Co. GmbH & Co., priority 1996, dated 1998)
